# Source: publication PMC3401268 (Bioorganic & medicinal chemistry, 2012)
# How the values were obtained:
# α-synuclein fibrils [1] = target: T1, α-synuclein fibrils (Homo sapiens, UniProt P37840); test: ThT saturation binding to α-synuclein fibrils; conditions: Tris buffer 30 mM pH 7.4
# α-synuclein fibrils [2] = target: T1, α-synuclein fibrils
compound,measurement,setting,value
"Cc1ccc2c(c1)sc(-c1ccc(N(C)C)cc1)[n+]2C [ThT, Thioflavin T]",Bmax of ThT binding to α-synuclein fibrils,α-synuclein fibrils [1],5672 afu
CCc1cc(Cl)c(OC)c(C(=O)NC[C@@H]2CCCN2CC)c1O.Cl [eticlopride hydrochloride],Competition for ThT in the assay (specificity control),α-synuclein fibrils [2],no significant competition
